Assay results reported in patent EP1948196B1, “USE OF TETRAORGANOSILICON COMPOUNDS” (Salama, Zoser B., priority 2005, dated 2007).
≈ marks a conversion by molar mass, not a printed value. Numbered stars: 1 amine (or outer) side, 2 acyl side, 3 side chain; on linkers, the order of the positions; unused ones are H or OH. Bridge positions count the residues as written; N and C are the ends. Peptide text beside a SMILES is read from it. I, II: the chains in the order shown. OSiEt2O = CC[Si](CC)(O[*:1])O[*:2]

Columns and labels:
Osteosarkome = assay: Effect on osteosarcomas
MIAPaCa2 - Pankreaskrebs = assay: MTT assay / EZ4U test, 4 days; format: cell-based; settings: 200 - 12.5 µg/ml, 4 Tage; for IC50: Homo sapiens, MIA PaCa-2, read-out: IC50 MlAPaCa2
Method: (§1) Die Silane 1, 5, 9, 10, 11, 13, 15, 16 wurden in Ethanol gelöst und in MTT Assays in einer anfänglichen Konzentration von 200 µg/ml (5 Lösungsschritte 200 - 12.5 µg/ml) verwendet. Die Platten wurde für eine Dauer.von 4 Tagen inkubiert und die Entwicklungsfähigkeit mithilfe des EZ4U Test bestimmt. Die IC50 Werte wurden ausgehend von Dosierungs-Reaktions-Linien berechnet Zelllinien: Colo 205 and HT29 - Kolonkarzinom; BxPC3 and MIAPaCa2 - Pankreaskrebs; CRO2B - karzinoid, A431 Epidermalkarzinom; normale Zellen: WI38 - humane embryonale Fibroblasten; NIH3T3 - mausartige Fibroblasten; IEC6 - mausartige Enterozyten.

[1] = tested on: WI38 - humane embryonale Fibroblasten; assay: MTT assay / EZ4U test, 4 days; format: cell-based; settings: 200 - 12.5 µg/ml, 4 Tage; for IC50: Homo sapiens, WI-38, read-out: IC50 WI38
Method: as §1

CRO2B - karzinoid = assay: MTT assay / EZ4U test, 4 days; format: cell-based; settings: 200 - 12.5 µg/ml, 4 Tage; for IC50: read-out: IC50 CR02B
Method: as §1

A431 Epidermalkarzinom = assay: MTT assay / EZ4U test, 4 days; format: cell-based; settings: 200 - 12.5 µg/ml, 4 Tage; for IC50: Homo sapiens, A-431, read-out: IC50 A431
Method: as §1

[2] = tested on: NIH3T3 - mausartige Fibroblasten; assay: MTT assay / EZ4U test, 4 days; format: cell-based; settings: 200 - 12.5 µg/ml, 4 Tage; for IC50: Mus musculus, NIH3T3, read-out: IC50 NIH3T3
Method: as §1

HT29 - Kolonkarzinom = assay: MTT assay / EZ4U test, 4 days; format: cell-based; settings: 200 - 12.5 µg/ml, 4 Tage; for IC50: Homo sapiens, HT-29, read-out: IC50 HT29
Method: as §1

[3] = tested on: IEC6 - mausartige Enterozyten; assay: MTT assay / EZ4U test, 4 days; format: cell-based; settings: 200 - 12.5 µg/ml, 4 Tage; for IC50: Rattus norvegicus, IEC-6, read-out: IC50 IEC6
Method: as §1

BxPC3 - Pankreaskrebs = assay: MTT assay / EZ4U test, 4 days; format: cell-based; settings: 200 - 12.5 µg/ml, 4 Tage; for IC50: Homo sapiens, BXPC-3, read-out: IC50 BxPC3
Method: as §1

T47D (Brustkrebs) = assay: MTT test, triplicate, two-fold dilutions; format: cell-based; settings: up to 500 µg/ml; for IC50: Homo sapiens, T47D, read-out: IC50 T47D
Method: (§2) Die Silan wurden in Ethanol aufgelöst und in Zellkulturmedien in Konzentrationen von bis zu 500 µg/ml resuspendiert. Es wurden MTT Tests in dreifacher Ausführung durchgeführt, für welche doppelte Lösungen (7 Schritte) und colo205 (Kofon-Karzinom), BxPC3 (pankreatisches Adenokarzinom) sowie T47D (Brustkrebs) benutzt wurden.

[4] = tested on: BxPC3 (pankreatisches Adenokarzinom); assay: MTT test, triplicate, two-fold dilutions; format: cell-based; settings: up to 500 µg/ml; for IC50: Homo sapiens, BXPC-3, read-out: IC50 BxPC3
Method: as §2

colo205 (Kofon-Karzinom) = assay: MTT test, triplicate, two-fold dilutions; format: cell-based; settings: up to 500 µg/ml; for IC50: Homo sapiens, COLO 205, read-out: IC50 Colo205
Method: as §2

Maus = assay: Pharmacological observation in the mouse (central, vegetative and toxic effects, acute toxicity); format: in vivo
Description: Pharmakologische Untersuchungen an der Maus
Die Verbindungen wurden an der Maus auf zentrale, vegetative und toxische Effekte geprüft. Durch systemische Einzelbeobachtungen sind neben der akuten Toxizität (orienberende letale Dosis, oLD) zentrale und vegetative Wirkungen der Testsubstanzen, insbesondere Effekte auf die Motorik und das Reaktionsvermögen, die Haut- und Rektaltemperatur sowie auf die Pupillenmotorik erfasst worden. Die getesteten Dosierungen betrugen 5 •10^-4, 1 • 10^-3 und 5 • 10^-3 mol/kg Körpergewicht Letale Wirkungen konnten bei keiner der Verbindungen beobachtet werden. Die oLD lag für Di(tetradecanoyloxy)dimethylsilan und Di(octadecanoyloxy)dimethylsilan unter 1 • 10^-3 mol/kg Körpergewicht für alle übrigen Verbindungen unter 5 • 10^-3 mollkg Körpergewicht.

Normale Zellen = assay: Mean IC50 over all normal cell lines; format: cell-based; settings: mean over normal cell lines; for IC50: read-out: IC50 Normale Zellen (Durchschnitt ± SD)
Method: as §1
(§3) Mittelwerte-IC50 für alle Krebs- oder normalen Zelllinien: […]

Krebszellen = assay: Mean IC50 over all cancer cell lines; format: cell-based; settings: mean over cancer cell lines; for IC50: read-out: IC50 Krebszellen (Durchschnitt ± SD)
Method: as §1, §3

Colo205 Kolonkarzinom = assay: subG1 apoptotic fraction, propidium iodide, flow cytometry; format: cell-based; settings: 50 µg/ml, 4 Tage
Method: (§4) Die Zellen (IEC6 mausartige Enterozyten; Panc1 Pankreaskrebszellen; Colo205 Kolonkarzinom) wurden mit 50 µg/ml Silanen inkubiert und nach 4-tägiger Aussetzung auf DNA eingefärbt (Propidiumiodid). Die SubG1 Zellteilung wurde mittels Durchflusscytometrie bestimmt.

[5] = tested on: Panc1 Pankreaskrebszellen; assay: as above; format: cell-based; settings: 50 µg/ml, 4 Tage
Method: as §4

[6] = tested on: IEC6 mausartige Enterozyten; assay: as above; format: cell-based; settings: 50 µg/ml, 4 Tage
Method: as §4

Colo 205 - Kolonkarzinom = assay: MTT assay / EZ4U test, 4 days; format: cell-based; settings: 200 - 12.5 µg/ml, 4 Tage
Method: as §1

[7] = tested on: Kälber-Aortenendothelzellinie BKEz-7; assay: tissue or blood; format: cell-based
Description: Prüfung auf zytotoxisches Potential an Kälber-Aortenendothelzellinie BKEz-7
Als Marker für eine zytotoxische Wirkung wird bei Zellen der charakterisierten Kälber-Aortenendothelzellinie BKEz-7 die Hemmkonzentration ermittelt, bei der eine 50%-ige Hemmung der Zellproliferation erfolgt (im Vergleich zu Kontrollkulturen ohne Zusatz eines Zellinhibitors). Die resultierende Reduzierung der Zellzahl um 50% wird als IC 50 ausgedrückt. Die getesteten Silanverbindungen wurden als Suspensionen auf die Kulturen gegeben und 48 Stunden bei 37°C inkubiert. Zusätzlich erfolgten morphologische Kontrollen und Vitalitätsbestimmungen mittels dem Neutralrot-Test. Mit Ausnahme des Di(dodecanoyloxy)dimethylsilans standen alle Ergebnisse der morphologischen Untersuchungen in guter Übereinstimmung. […]

Basalzellkarzinome = assay: Effect on basal cell carcinomas
Medulloblastome = assay: Effect on medulloblastomas

Row | Structure (SMILES) | IC50 (MIAPaCa2 - Pankreaskrebs) | IC50 [1] | IC50 (CRO2B - karzinoid) | IC50 (A431 Epidermalkarzinom) | IC50 [2] | IC50 (HT29 - Kolonkarzinom) | IC50 [3] | IC50 (BxPC3 - Pankreaskrebs) | IC50 (T47D (Brustkrebs)) | IC50 [4] | IC50 (colo205 (Kofon-Karzinom)) | zentrale, vegetative und toxische Effekte (Verhaltensänderungen) (Maus; 1•10^-3 mol/kg) | zentrale, vegetative und toxische Effekte (Verhaltensänderungen) (Maus; 5•10^-3 mol/kg) | zentrale, vegetative und toxische Effekte (Verhaltensänderungen) (Maus; 5•10^-4 mol/kg) | IC50 (Normale Zellen) | IC50 (Krebszellen) | subG1 apoptotische Zellteilung Colo205 (Colo205 Kolonkarzinom) | subG1 apoptotische Zellteilung Panc1 [5] | subG1 apoptotische Zellteilung IEC6 [6] | also measured
1 | CCCCCCCCCCCCCCCC(=O)O[Si](C)(C)OC(=O)CCCCCCCCCCCCCCC [Si16, Di (hexadecanoyloxy) dimethylsilan] | 400 µg/mL (≈ 703 µM) | 36 µg/mL (≈ 63.3 µM) | 31.5 µg/mL (≈ 55.4 µM) | 34.5 µg/mL (≈ 60.6 µM) | 42.5 µg/mL (≈ 74.7 µM) | 34.4 µg/mL (≈ 60.5 µM) | 17.2 µg/mL (≈ 30.2 µM) | 12.5 µg/mL (≈ 22 µM) | 15 µg/mL (≈ 26.4 µM) | 45 µg/mL (≈ 79.1 µM) | 500 µg/mL (≈ 879 µM) | keine Verhaltensänderungen | Ataxie, Piloerektion, Grifistärkesenkung | keine Verhaltensänderungen | 31.9 µg/mL (≈ 56.1 µM) | 28.2 µg/mL (≈ 49.6 µM) | 3,55 ± 0,07 | 22,2 ± 1,6 | 2,45±0,21 | Wirkung auf Osteosarkome (Osteosarkome): zeigen eine Wirkung
2 | CCCCCCCCCC(=O)O[Si](CC)(CC)OC(=O)CCCCCCCCC [Si9, Didecanoyloxy - diethylslan] |  |  |  |  |  |  |  |  |  |  |  |  |  |  |  |  | 32,1 ± 1,41 | 42,8 ± 1,6 | 0,9 ± 0.0 | IC50 MlAPaCa2 (MIAPaCa2 - Pankreaskrebs): 37.5 µg/mL (≈ 87.5 µM); IC50 WI38 [1]: 37.0 µg/mL (≈ 86.3 µM); IC50 CR02B (CRO2B - karzinoid): 31.5 µg/mL (≈ 73.5 µM); IC50 A431 (A431 Epidermalkarzinom): 29.4 µg/mL (≈ 68.6 µM); IC50 NIH3T3 [2]: 34.4 µg/mL (≈ 80.2 µM); IC50 HT29 (HT29 - Kolonkarzinom): 41.5 µg/mL (≈ 96.8 µM); IC50 Colo205 (Colo 205 - Kolonkarzinom): 40.6 µg/mL (≈ 94.7 µM); IC50 IEC6 [3]: 17.2 µg/mL (≈ 40.1 µM); IC50 BxPC3 (BxPC3 - Pankreaskrebs): 40.0 µg/mL (≈ 93.3 µM); IC50 T47D (T47D (Brustkrebs)): 40 µg/mL (≈ 93.3 µM); IC50 BxPC3 [4]: 15 µg/mL (≈ 35 µM); IC50 Colo205 (colo205 (Kofon-Karzinom)): 60 µg/mL (≈ 140 µM); IC50 Normale Zellen (Durchschnitt ± SD) (Normale Zellen): 29,5 ± 10,8 µg/ml; IC50 Krebszellen (Durchschnitt ± SD) (Krebszellen): 35,6 ± 6,0 µg/ml
3 | CCCCCCCCCCCCCCCCCC(=O)O[Si](OC(=O)CCCCCCCCCCCCCCCCC)(c1ccccc1)c1ccccc1 [Si10, Di (octadecanoyloxy) diphenylsilan] | 37 µg/mL (≈ 49.4 µM) | 21.8 µg/mL (≈ 29.1 µM) | 18.5 µg/mL (≈ 24.7 µM) | 21.9 µg/mL (≈ 29.2 µM) | 22.2 µg/mL (≈ 29.6 µM) | 27.5 µg/mL (≈ 36.7 µM) | 17.2 µg/mL (≈ 23 µM) | 20 µg/mL (≈ 26.7 µM) | 15 µg/mL (≈ 20 µM) | 15 µg/mL (≈ 20 µM) | 60 µg/mL (≈ 80.1 µM) | schwache Ataxie, Hyperaktivität und Piloerektion | schwache Ataxie | keine Verhaltensänderungen | 20.4 µg/mL (≈ 27.2 µM) | 21.9 µg/mL (≈ 29.2 µM) | 43,9 ± 1,41 | 60,7 ± 0,2 | 13,4 ± 0,42 | IC50 (Colo 205 - Kolonkarzinom; Homo sapiens, COLO 205, read-out: IC50 Colo205): 30.6 µg/mL (≈ 40.8 µM); Bedenkliche Toxizität [7]: -; IC50 ([7]; suspensions, 48 Stunden bei 37°C): 84 µM; Wirkung auf Basalzellkarzinome (Basalzellkarzinome): zeigen eine Wirkung
4 | CC[Si](CC)(OC(=O)CNC(=O)CNC(=O)CNC(=O)CN)OC(=O)CNC(=O)CNC(=O)CNC(=O)CN [Diethyl bis(tetraglycyl)silylester] (I: H-GGGG / II: H-GGGG; linker I:C-II:C via OSiEt2O) |  |  |  |  |  |  |  |  |  |  |  |  |  |  |  |  |  |  |  | Wirkung gegen Medulloblastome (Medulloblastome): zeigen eine Wirkung
